Reference: patent US20130136772A1, “REGULATION OF IMMUNE RESPONSE BY COLOCYNTHIN AND/OR ITS DERIVATIVES” (priority 2010, published 2013)
“And” between values parts separate entries of the source, which are not always exact repeats. Equal values may be shown once.

Tests used:
skin allograft rejection = assay: Skin allograft rejection time; format: in vivo, mice
Protocol: The modified method of Billingham and Medawar (1951) [[…]] was followed to study the skin allograft rejection time in mice. Graded doses of test material AD-B-63B were administered to the animals for 7 days and graft rejection time (GRT) was recorded by daily observation of epithelial skin layer survival. […] The basic mechanism involved in increase in graft rejection time is the suppression of T lymphocytes. After transplantation, MHC peptide complexes of the foreign organ are recognized by CD4+ and CD8+ T cells of the recipient as non-self antigens. These T cells differentiate into effector T cells and stimulate an immune response. After T cells differentiate and migrate to the site, macrophages and other inflammatory agents are mediated to the site. Cytotoxic T cells (CD8+) lyse the endothelial cells on the graft, CD4+ Th1 activate macrophages and CD4+ Th2 aid in antibody production.

CD8+ T cells = assay: Lymphocyte immunophenotyping, CD8+ T cell population in SRBC immunised mice; format: in vivo, Swiss albino mice; settings: graded doses; most significant suppression at 5 and 10 mg/kg vs sensitized control
Excerpt: (§1) Immunophenotyping focuses on lymphocyte populations involved in acquired immunity. Specific molecules present on the cell surface defines characteristics of lymphocytes such as state of activation or functional capabilities. Murine monoclonal antibodies conjugated to a fluorochrome and directed against co-receptors CD4 and CD8 were used in a multi parametric flowcytometric assay to quantify the lymphocyte subsets associated with the cell-mediated immune response.
(§2) Estimation of T cell surface markers: On day 0, mice were immunized by injecting 200 μl of 5×10^9 SRBC/ml intraperitonially. Drug administration was carried out for 6 days including the day of immunization. Same amount of SRBC was used to challenge the animals on day 7. After 24 h of challenge, blood was taken from retro-orbital plexus of animals for estimation of CD4^+ and CD8^+ T cells. 100 μl of whole blood was taken in each tube and FITC (fluorescein isothiocyanate) labelled CD4+ and PE (phycoerythrin) labelled CD8+ monoclonal antibodies were added and mixed gently. Tubes were incubated in the dark for 30 min. at room temperature. Subsequently, 2 ml of 1× FACS lysing solution was added at room temperature with gentle mixing. Samples were again incubated at room temperature for 10 min. […]

CD4+ T cells = assay: Lymphocyte immunophenotyping, CD4+ T cell population in SRBC immunised mice; format: in vivo, Swiss albino mice; settings: graded doses; most significant suppression at 5 and 10 mg/kg vs sensitized control
Excerpt: as §1, §2

leucocyte migration = assay: In vivo leucocyte migration (carrageenan induced pleurisy); parameters: species or system mice; settings: for EXUDATE VOLUME Mean ± S.E.: 1 h before and 6 h after carrageenan, pleural exudate at 24 h
Protocol: Mice were injected with 0.2 ml of carrageenan (1% w/v) solution in sterilised normal saline into the pleural cavity by the modified method of Meacock and Kitchen, 1979 [Meacock S C R, Kitchen E A, (1979). Effect of non-steroidal antiinflammatory drug benoxaprofen on leukocyte migration. Journal of Pharmacy & Pharmacology; 31: 366-370]. The test drug was administered orally 1 h before and 6 h after the injection. After 24 h of carrageenan injection the pleural exudate was collected, volume measured and the total leucocyte count of the pleural fluid was determined (Table 3). Flowcytometry as a tool for evaluation of neutrophils is particularly useful because of their larger size than monocytes and lymphocytes when analysed on the forward scatter [FSc]. The percentage of these can be analysed by selectively ‘gating’ the neutrophils without physical separation of the cells (FIG. 4).

[1] = graded oral doses, highly significant effect at 10 mg/kg oral dose

CC(=O)OC(C)(C)/C=C/C(=O)[C@](C)(O)[C@H]1[C@H](O)C[C@@]2(C)[C@@H]3CC=C4[C@@H](C=C(O[C@@H]5O[C@H](CO)[C@@H](O)[C@H](O)[C@H]5O)C(=O)C4(C)C)[C@]3(C)C(=O)C[C@]12C [AD-B-63B, 2-O-β-D-glucopyranosyl cucurbitacin E]
GRAFT REJECTION (Percent), delayed (skin allograft rejection; 1 mg/kg p.o.): 16.30% and 16.30↓ %
REJECTION TIME Mean ± S.E. (skin allograft rejection; 1 mg/kg p.o. for 7 days): 15.12 ± 0.11 days
GRAFT REJECTION (Percent), delayed (skin allograft rejection; 5 mg/kg p.o.): 29.23% and 29.23↓ %
REJECTION TIME Mean ± S.E. (skin allograft rejection; 5 mg/kg p.o. for 7 days): 16.80 ± 0.22 days
GRAFT REJECTION (Percent), delayed (skin allograft rejection; 10 mg/kg p.o.): 31.84% and 31.84↓ %
REJECTION TIME Mean ± S.E. (skin allograft rejection; 10 mg/kg p.o. for 7 days): 17.14 ± 0.23 days
percentage of CD8+ T-cell population (CD8+ T cells): decrease
percentage of CD4+ T-cell population (CD4+ T cells): decrease
% inhibition of exudate volume (leucocyte migration; 1 mg/kg p.o.): (22.72%↓)
% inhibition of total leucocyte count (leucocyte migration; 1 mg/kg p.o.): (12.12%↓)
EXUDATE VOLUME Mean ± S.E. (leucocyte migration; 1 mg/kg p.o.): 0.85 ± 0.10 mL
% inhibition of exudate volume (leucocyte migration; 5 mg/kg p.o.): (38.18%↓)
% inhibition of total leucocyte count (leucocyte migration; 5 mg/kg p.o.): (23.52%↓)
EXUDATE VOLUME Mean ± S.E. (leucocyte migration; 5 mg/kg p.o.): 0.68 ± 0.18 mL
% inhibition of exudate volume (leucocyte migration; 10 mg/kg p.o.): (44.54%↓)
% inhibition of total leucocyte count (leucocyte migration; 10 mg/kg p.o.): (24.39%↓)
EXUDATE VOLUME Mean ± S.E. (leucocyte migration; 10 mg/kg p.o.): 0.61 ± 0.10 mL
exudates volume against control (leucocyte migration; [1]): dose dependent inhibition
total leucocytes count against control (leucocyte migration; [1]): dose dependent inhibition
